From ChEMBL document CHEMBL3046329, “Sensitivity to silthiofam, tebuconazole and difenoconazole of Gaeumannomyces graminis var. tritici isolates from China” (Pest Manag Sci, 2012)
Converted amounts (≈) assume the structure as drawn.

Columns and labels:
Assay type in all cases: functional, organism-based
Gaeumannomyces tritici [1] = experiment: Antifungal activity against sithiofam-resistant Gaeumannomyces graminis var. tritici isolate JS07 expressing C1 genetic cluster assessed as reduction in fungal colony diameter after 4 days; settings: isolate JS07, 96 h
Gaeumannomyces tritici [2] = experiment: Antifungal activity against sithiofam-resistant Gaeumannomyces graminis var. tritici isolate JS06 expressing C1 genetic cluster assessed as reduction in fungal colony diameter after 4 days; settings: isolate JS06, 96 h
Gaeumannomyces tritici [3] = experiment: Antifungal activity against sithiofam-resistant Gaeumannomyces graminis var. tritici isolate JS05 expressing C1 genetic cluster assessed as reduction in fungal colony diameter after 4 days; settings: isolate JS05, 96 h
Gaeumannomyces tritici [4] = experiment: Antifungal activity against sithiofam-sensitive Gaeumannomyces graminis var. tritici isolate JS02 expressing C1 genetic cluster assessed as reduction in fungal colony diameter after 4 days; settings: isolate JS02, 96 h
Gaeumannomyces tritici [5] = experiment: Antifungal activity against sithiofam-resistant Gaeumannomyces graminis var. tritici isolate JS12 expressing C1 genetic cluster assessed as reduction in fungal colony diameter after 4 days; settings: isolate JS12, 96 h
Gaeumannomyces tritici [6] = experiment: Antifungal activity against sithiofam-resistant Gaeumannomyces graminis var. tritici isolate JS11 expressing C1 genetic cluster assessed as reduction in fungal colony diameter after 4 days; settings: isolate JS11, 96 h
Gaeumannomyces tritici [7] = experiment: Antifungal activity against sithiofam-sensitive Gaeumannomyces graminis var. tritici isolate JS10 expressing C2 genetic cluster assessed as reduction in fungal colony diameter after 4 days; settings: isolate JS10, 96 h
Gaeumannomyces tritici [8] = experiment: Antifungal activity against sithiofam-resistant Gaeumannomyces graminis var. tritici isolate JS09 expressing C1 genetic cluster assessed as reduction in fungal colony diameter after 4 days; settings: isolate JS09, 96 h
Gaeumannomyces tritici [9] = experiment: Antifungal activity against sithiofam-sensitive Gaeumannomyces graminis var. tritici isolate HN21 expressing C2 genetic cluster assessed as reduction in fungal colony diameter after 4 days; settings: isolate HN21, 96 h
Gaeumannomyces tritici [10] = experiment: Antifungal activity against sithiofam-resistant Gaeumannomyces graminis var. tritici isolate HN20 expressing C1 genetic cluster assessed as reduction in fungal colony diameter after 4 days; settings: isolate HN20, 96 h
Gaeumannomyces tritici [11] = experiment: Antifungal activity against sithiofam-sensitive Gaeumannomyces graminis var. tritici isolate HN18 expressing C2 genetic cluster assessed as reduction in fungal colony diameter after 4 days; settings: isolate HN18, 96 h
Gaeumannomyces tritici [12] = experiment: Antifungal activity against sithiofam-sensitive Gaeumannomyces graminis var. tritici isolate HN24 expressing C2 genetic cluster assessed as reduction in fungal colony diameter after 4 days; settings: isolate HN24, 96 h
Gaeumannomyces tritici [13] = experiment: Antifungal activity against sithiofam-sensitive Gaeumannomyces graminis var. tritici isolate HN14 expressing C2 genetic cluster assessed as reduction in fungal colony diameter after 4 days; settings: isolate HN14, 96 h
Gaeumannomyces tritici [14] = experiment: Antifungal activity against sithiofam-sensitive Gaeumannomyces graminis var. tritici isolate HN11 expressing C2 genetic cluster assessed as reduction in fungal colony diameter after 4 days; settings: isolate HN11, HN11, 96 h
Gaeumannomyces tritici [15] = experiment: Antifungal activity against sithiofam-resistant Gaeumannomyces graminis var. tritici isolate HN10 expressing C1 genetic cluster assessed as reduction in fungal colony diameter after 4 days; settings: isolate HN10, 96 h
Gaeumannomyces tritici [16] = experiment: Antifungal activity against sithiofam-resistant Gaeumannomyces graminis var. tritici isolate HN09 expressing C1 genetic cluster assessed as reduction in fungal colony diameter after 4 days; settings: isolate HN09, 96 h
Gaeumannomyces tritici [17] = experiment: Antifungal activity against sithiofam-resistant Gaeumannomyces graminis var. tritici isolate HN08 expressing C1 genetic cluster assessed as reduction in fungal colony diameter after 4 days; settings: isolate HN08, 96 h
Gaeumannomyces tritici [18] = experiment: Antifungal activity against sithiofam-resistant Gaeumannomyces graminis var. tritici isolate HN06 expressing C1 genetic cluster assessed as reduction in fungal colony diameter after 4 days; settings: isolate HN06, 96 h
Gaeumannomyces tritici [19] = experiment: Antifungal activity against sithiofam-resistant Gaeumannomyces graminis var. tritici isolate HN05 expressing C1 genetic cluster assessed as reduction in fungal colony diameter after 4 days; settings: isolate HN05, 96 h
Gaeumannomyces tritici [20] = experiment: Antifungal activity against sithiofam-resistant Gaeumannomyces graminis var. tritici isolate HN02 expressing C1 genetic cluster assessed as reduction in fungal colony diameter after 4 days; settings: isolate HN02, 96 h
Gaeumannomyces tritici [21] = experiment: Antifungal activity against sithiofam-resistant Gaeumannomyces graminis var. tritici isolate HN01 expressing C1 genetic cluster assessed as reduction in fungal colony diameter after 4 days; settings: isolate HN01, 96 h
Gaeumannomyces tritici [22] = experiment: Antifungal activity against sithiofam-sensitive Gaeumannomyces graminis var. tritici isolate AH09 expressing C2 genetic cluster assessed as reduction in fungal colony diameter after 4 days; settings: isolate AH09, 96 h
Gaeumannomyces tritici [23] = experiment: Antifungal activity against sithiofam-sensitive Gaeumannomyces graminis var. tritici isolate HN17 expressing C2 genetic cluster assessed as reduction in fungal colony diameter after 4 days; settings: isolate HN17, 96 h
Gaeumannomyces tritici [24] = experiment: Antifungal activity against sithiofam-sensitive Gaeumannomyces graminis var. tritici isolate HN15 expressing C2 genetic cluster assessed as reduction in fungal colony diameter after 4 days; settings: isolate HN15, 96 h
Gaeumannomyces tritici [25] = experiment: Antifungal activity against sithiofam-sensitive Gaeumannomyces graminis var. tritici isolate AH07 expressing C2 genetic cluster assessed as reduction in fungal colony diameter after 4 days; settings: isolate AH07, 96 h
Gaeumannomyces tritici [26] = experiment: Antifungal activity against sithiofam-sensitive Gaeumannomyces graminis var. tritici isolate AH04 expressing C2 genetic cluster assessed as reduction in fungal colony diameter after 4 days; settings: isolate AH04, 96 h
Gaeumannomyces tritici [27] = experiment: Antifungal activity against sithiofam-resistant Gaeumannomyces graminis var. tritici isolate AH02 expressing C1 genetic cluster assessed as reduction in fungal colony diameter after 4 days; settings: isolate AH02, 96 h
Gaeumannomyces tritici [28] = experiment: Antifungal activity against sithiofam-sensitive Gaeumannomyces graminis var. tritici isolate AH01 expressing C2 genetic cluster assessed as reduction in fungal colony diameter after 4 days; settings: isolate AH01, 96 h
Gaeumannomyces tritici [29] = experiment: Antifungal activity against sithiofam-sensitive Gaeumannomyces graminis var. tritici isolate SD04 expressing C2 genetic cluster assessed as reduction in fungal colony diameter after 4 days; settings: isolate SD04, 96 h
Gaeumannomyces tritici [30] = experiment: Antifungal activity against sithiofam-sensitive Gaeumannomyces graminis var. tritici isolate SD03 expressing C2 genetic cluster assessed as reduction in fungal colony diameter after 4 days; settings: isolate SD03, 96 h
Gaeumannomyces tritici [31] = experiment: Antifungal activity against sithiofam-sensitive Gaeumannomyces graminis var. tritici isolate SD02 expressing C2 genetic cluster assessed as reduction in fungal colony diameter after 4 days; settings: isolate SD02, 96 h
Gaeumannomyces tritici [32] = experiment: Antifungal activity against sithiofam-resistant Gaeumannomyces graminis var. tritici isolate AH14 expressing C1 genetic cluster assessed as reduction in fungal colony diameter after 4 days; settings: isolate AH14, 96 h
Gaeumannomyces tritici [33] = experiment: Antifungal activity against sithiofam-resistant Gaeumannomyces graminis var. tritici isolate AH13 expressing C1 genetic cluster assessed as reduction in fungal colony diameter after 4 days; settings: isolate AH13, 96 h
Gaeumannomyces tritici [34] = experiment: Antifungal activity against sithiofam-sensitive Gaeumannomyces graminis var. tritici isolate AH12 expressing C2 genetic cluster assessed as reduction in fungal colony diameter after 4 days; settings: isolate AH12, 96 h
Gaeumannomyces tritici [35] = experiment: Antifungal activity against sithiofam-resistant Gaeumannomyces graminis var. tritici isolate AH10 expressing C1 genetic cluster assessed as reduction in fungal colony diameter after 4 days; settings: isolate AH10, 96 h
Gaeumannomyces tritici [36] = experiment: Antifungal activity against sithiofam-sensitive Gaeumannomyces graminis var. tritici isolate HN32 expressing C2 genetic cluster assessed as reduction in fungal colony diameter after 4 days; settings: isolate HN32, 96 h
Gaeumannomyces tritici [37] = experiment: Antifungal activity against sithiofam-sensitive Gaeumannomyces graminis var. tritici isolate HN30 expressing C2 genetic cluster assessed as reduction in fungal colony diameter after 4 days; settings: isolate HN30, 96 h

SMILES	EC50 (Gaeumannomyces tritici [1]) [µg/mL]	EC50 (Gaeumannomyces tritici [2]) [µg/mL]	EC50 (Gaeumannomyces tritici [3]) [µg/mL]	EC50 (Gaeumannomyces tritici [4]) [µg/mL]	EC50 (Gaeumannomyces tritici [5]) [µg/mL]	EC50 (Gaeumannomyces tritici [6]) [µg/mL]	EC50 (Gaeumannomyces tritici [7]) [µg/mL]	EC50 (Gaeumannomyces tritici [8]) [µg/mL]	EC50 (Gaeumannomyces tritici [9]) [µg/mL]	EC50 (Gaeumannomyces tritici [10]) [µg/mL]	EC50 (Gaeumannomyces tritici [11]) [µg/mL]	EC50 (Gaeumannomyces tritici [12]) [µg/mL]	EC50 (Gaeumannomyces tritici [13]) [µg/mL]	EC50 (Gaeumannomyces tritici [14]) [µg/mL]	EC50 (Gaeumannomyces tritici [15]) [µg/mL]	EC50 (Gaeumannomyces tritici [16]) [µg/mL]	EC50 (Gaeumannomyces tritici [17]) [µg/mL]	EC50 (Gaeumannomyces tritici [18]) [µg/mL]	EC50 (Gaeumannomyces tritici [19]) [µg/mL]	EC50 (Gaeumannomyces tritici [20]) [µg/mL]	further results
C=CCNC(=O)c1c([Si](C)(C)C)sc(C)c1C [SILTHIOFAM]	24.7 (≈ 92.2 µM)	111 (≈ 417 µM)	24.7 (≈ 92.2 µM)	0.0013 (≈ 0.00486 µM)	48.4 (≈ 181 µM)	46.8 (≈ 175 µM)	0.0009 (≈ 0.00336 µM)	34.2 (≈ 128 µM)	0.0005 (≈ 0.00187 µM)	24.8 (≈ 92.7 µM)	0.0005 (≈ 0.00187 µM)	0.0003 (≈ 0.00112 µM)	0.0009 (≈ 0.00336 µM)	0.0007 (≈ 0.00262 µM)	30.2 (≈ 113 µM)	106 (≈ 398 µM)	62.4 (≈ 233 µM)	29.9 (≈ 112 µM)	23.8 (≈ 89.1 µM)	88.1 (≈ 329 µM)	EC50 (Gaeumannomyces tritici [21]): 82.7 µg/mL (≈ 309 µM); EC50 (Gaeumannomyces tritici [22]): 0.0003 µg/mL (≈ 0.00112 µM); EC50 (Gaeumannomyces tritici [23]): 0.001 µg/mL (≈ 0.00374 µM); EC50 (Gaeumannomyces tritici [24]): 0.0011 µg/mL (≈ 0.00411 µM); EC50 (Gaeumannomyces tritici [25]): 0.0006 µg/mL (≈ 0.00224 µM); EC50 (Gaeumannomyces tritici [26]): 0.0012 µg/mL (≈ 0.00449 µM); EC50 (Gaeumannomyces tritici [27]): 51.8 µg/mL (≈ 194 µM); EC50 (Gaeumannomyces tritici [28]): 0.0011 µg/mL (≈ 0.00411 µM); EC50 (Gaeumannomyces tritici [29]): 0.0002 µg/mL (≈ 0.000748 µM); EC50 (Gaeumannomyces tritici [30]): 0.0009 µg/mL (≈ 0.00336 µM); EC50 (Gaeumannomyces tritici [31]): 0.0036 µg/mL (≈ 0.0135 µM); EC50 (Gaeumannomyces tritici [32]): 39.9 µg/mL (≈ 149 µM); EC50 (Gaeumannomyces tritici [33]): 70.2 µg/mL (≈ 263 µM); EC50 (Gaeumannomyces tritici [34]): 0.0006 µg/mL (≈ 0.00224 µM); EC50 (Gaeumannomyces tritici [35]): 57.6 µg/mL (≈ 215 µM); EC50 (Gaeumannomyces tritici [36]): 0.0004 µg/mL (≈ 0.0015 µM); EC50 (Gaeumannomyces tritici [37]): 0.0014 µg/mL (≈ 0.00523 µM)
CC(C)(C)C(O)(CCc1ccc(Cl)cc1)Cn1cncn1 (centres undefined) [TEBUCONAZOLE]	0.0584 (≈ 0.19 µM)	0.085 (≈ 0.276 µM)	0.0575 (≈ 0.187 µM)	0.0547 (≈ 0.178 µM)	0.0274 (≈ 0.089 µM)	0.0437 (≈ 0.142 µM)	0.103 (≈ 0.334 µM)	0.0298 (≈ 0.0968 µM)	0.0609 (≈ 0.198 µM)	0.104 (≈ 0.338 µM)	0.0727 (≈ 0.236 µM)	0.0472 (≈ 0.153 µM)	0.0479 (≈ 0.156 µM)	0.0562 (≈ 0.183 µM)	0.0691 (≈ 0.224 µM)	0.0415 (≈ 0.135 µM)	0.057 (≈ 0.185 µM)	0.0533 (≈ 0.173 µM)	0.0498 (≈ 0.162 µM)	0.0364 (≈ 0.118 µM)	EC50 (Gaeumannomyces tritici [21]): 0.0198 µg/mL (≈ 0.0643 µM); EC50 (Gaeumannomyces tritici [22]): 0.0952 µg/mL (≈ 0.309 µM); EC50 (Gaeumannomyces tritici [23]): 0.0398 µg/mL (≈ 0.129 µM); EC50 (Gaeumannomyces tritici [24]): 0.0516 µg/mL (≈ 0.168 µM); EC50 (Gaeumannomyces tritici [25]): 0.0647 µg/mL (≈ 0.21 µM); EC50 (Gaeumannomyces tritici [26]): 0.231 µg/mL (≈ 0.752 µM); EC50 (Gaeumannomyces tritici [27]): 0.0999 µg/mL (≈ 0.325 µM); EC50 (Gaeumannomyces tritici [28]): 0.0254 µg/mL (≈ 0.0825 µM); EC50 (Gaeumannomyces tritici [29]): 0.127 µg/mL (≈ 0.412 µM); EC50 (Gaeumannomyces tritici [30]): 0.0983 µg/mL (≈ 0.319 µM); EC50 (Gaeumannomyces tritici [31]): 0.0575 µg/mL (≈ 0.187 µM); EC50 (Gaeumannomyces tritici [32]): 0.0265 µg/mL (≈ 0.0861 µM); EC50 (Gaeumannomyces tritici [33]): 0.302 µg/mL (≈ 0.981 µM); EC50 (Gaeumannomyces tritici [34]): 0.0416 µg/mL (≈ 0.135 µM); EC50 (Gaeumannomyces tritici [35]): 0.112 µg/mL (≈ 0.363 µM); EC50 (Gaeumannomyces tritici [36]): 0.238 µg/mL (≈ 0.772 µM); EC50 (Gaeumannomyces tritici [37]): 0.123 µg/mL (≈ 0.401 µM)
